Source: US9181264B2, “Fused heteroaryls and their uses” (Hutchison MediPharma Limited, priority 2011, dated 2015)

target: T1, mTOR kinase (Homo sapiens, UniProt P42345); assay: mTOR LanthaScreen TR-FRET assay; format: biochemical; settings: 10 μmol/L ATP, GFP-4EBP1 substrate; read-out: IC50, inhibition of mTOR
T1 construct: purchased Invitrogen PV4753
Procedure: Compounds are tested using LanthaScreen TR-FRET Assay. The kinase reaction is completed in 384-well black plate (Corning, Cat. 3676). The final conditions for kinase assay are: 10 μmol/L of ATP, 0.2 ng/μL of mTOR kinase, 0.4 μmol/L of GFP-4EBP1 substrate and assay buffer (50 mmol/L of HEPES, pH 7.5, 0.01% of Tween 20, 1 mmol/L of EGTA, 10 mmol/L of MnCl2, 2 mmol/L of DTT and 1% DMSO).
To each well, 2.5 μL of test compounds in 4% DMSO and 2.5 μL of 0.8 ng/μL mTOR kinase (Invitrogen, PV4753) diluted in assay buffer are added. The reaction is initiated by the addition of 5 μL mixture of 0.8 μmol/L GFP-4EBP1 Substrate (Invitorgen, PV4759) and 20 μmol/L ATP mixtures. The mixture is incubated at room temperature for 60 minutes. 10 μL of 20 mmol/L EDTA and 4 nmol/L Tb-anti-p4EBP1 [pThr46] antibody (Invitrogen, PV4755) diluted in TR-FRET dilution buffer are added and incubated for an additional 1 hour. The plate is then read in a BioTek Synergy2 Reader at excitation of 340 nm and emission of 490 nm and 528 nm.
The inhibition of test compound is calculated based on the ratio of 528 nm/490 nm. IC50 of test compound is obtained using XLfit 2.0 software.

T1 sequence (P42345 1360-2549 limits assumed): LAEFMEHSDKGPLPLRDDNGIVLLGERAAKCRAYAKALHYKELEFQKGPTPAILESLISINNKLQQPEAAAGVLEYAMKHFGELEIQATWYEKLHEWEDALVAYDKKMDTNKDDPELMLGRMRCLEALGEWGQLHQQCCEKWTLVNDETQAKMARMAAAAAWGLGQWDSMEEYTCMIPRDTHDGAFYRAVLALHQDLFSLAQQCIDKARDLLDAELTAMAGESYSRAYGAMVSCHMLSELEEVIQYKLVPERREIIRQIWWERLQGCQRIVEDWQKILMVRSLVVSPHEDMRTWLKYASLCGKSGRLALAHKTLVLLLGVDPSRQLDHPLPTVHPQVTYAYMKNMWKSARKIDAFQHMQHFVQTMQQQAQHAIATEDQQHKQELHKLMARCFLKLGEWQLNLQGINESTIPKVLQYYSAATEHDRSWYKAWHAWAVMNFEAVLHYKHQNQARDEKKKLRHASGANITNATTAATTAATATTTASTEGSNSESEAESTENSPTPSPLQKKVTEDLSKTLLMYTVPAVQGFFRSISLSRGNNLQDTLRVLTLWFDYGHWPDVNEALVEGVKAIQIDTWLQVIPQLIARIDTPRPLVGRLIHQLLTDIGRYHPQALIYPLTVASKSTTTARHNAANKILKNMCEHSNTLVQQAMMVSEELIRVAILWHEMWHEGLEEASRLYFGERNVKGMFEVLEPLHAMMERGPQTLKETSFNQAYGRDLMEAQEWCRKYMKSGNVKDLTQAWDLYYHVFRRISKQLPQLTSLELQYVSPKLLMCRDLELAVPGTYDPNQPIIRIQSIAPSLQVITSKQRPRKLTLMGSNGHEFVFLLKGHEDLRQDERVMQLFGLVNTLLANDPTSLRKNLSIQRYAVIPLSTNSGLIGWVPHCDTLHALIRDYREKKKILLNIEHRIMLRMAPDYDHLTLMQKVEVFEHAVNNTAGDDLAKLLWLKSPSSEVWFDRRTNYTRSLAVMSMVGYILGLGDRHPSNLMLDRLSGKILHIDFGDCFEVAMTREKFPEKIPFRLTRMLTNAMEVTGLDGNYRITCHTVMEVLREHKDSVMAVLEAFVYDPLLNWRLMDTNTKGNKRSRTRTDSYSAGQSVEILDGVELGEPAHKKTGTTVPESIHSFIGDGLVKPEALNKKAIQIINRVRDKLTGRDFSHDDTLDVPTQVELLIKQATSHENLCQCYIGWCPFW

IC50, < 100 nM:
C[C@H](O)C(=O)N1CCC(n2nnc3cnc4ccc(-c5cnc(N)c(C(F)(F)F)c5)nc4c32)CC1 [Compound 1, (S)-1-(4-(8-(6-amino-5-(trifluoromethyl)pyridin-3-yl)-1H-[1,2,3]triazolo[4,5-c][1,5]naphthyridin-1-yl)piperidin-1-yl)-2-hydroxypropan-1-one]
CCC(=O)N1CCC(n2nnc3cnc4ccc(-c5cnc(N)c(C(F)(F)F)c5)nc4c32)CC1 [Compound 6]
COCC(=O)N1CCC(n2nnc3cnc4ccc(-c5cnc(N)c(C(F)(F)F)c5)nc4c32)CC1 [Compound 7]
Nc1ncc(-c2ccc3ncc4nnn(C5CCN(C(=O)C6CC6)CC5)c4c3n2)cc1C(F)(F)F [Compound 9]
Nc1ncc(-c2ccc3ncc4nnn(C5CCOCC5)c4c3n2)cc1C(F)(F)F [Compound 10]
Nc1ncc(-c2ccc3ncc4nnn(Cc5ccc(F)cc5)c4c3c2)cn1 [Compound 12]
Nc1ncc(-c2ccc3ncc4nnn(-c5ccc6[nH]ncc6c5)c4c3c2)cc1C(F)(F)F [Compound 14]
CC(C)(C#N)c1ccc(-n2nnc3cnc4ccc(-c5cnc(N)c(C(F)(F)F)c5)nc4c32)cn1 [Compound 16]
CC(C)(C#N)c1ccc(-n2nnc3cnc4ccc(-c5cnc(N)c(C(F)(F)F)c5)nc4c32)cc1 [Compound 17]

target: T2, PI3Kα kinase (Homo sapiens, UniProt P42336); assay: PI3Ka Transcreener ADP assay (fluorescence polarization); format: biochemical; settings: 10 μM ATP, 30 μmol/L lipid substrate; read-out: IC50, inhibition of PI3Kα kinase
T2 construct: purchased Invitrogen PV4788
Procedure: Fluorescence polarization was used in this assay. The final conditions for kinase assay are 10 μM of ATP, 0.2 ng/μL of PI3Kα kinase, 30 μmol/L of lipid substrate and assay buffer (50 mmol/L of HEPES (pH 7.5), 100 mmol/L of NaCl, 1 mmol/L of EGTA, 3 mmol/L of MgCl2, 1 mmol/L of DTT and 0.03% CHAPS and 2% DMSO).
5 μL of test compounds in 10% DMSO and 10 μL of 0.5 ng/μL PI3K kinase (Invitrogen, PV4788) in assay buffer are put into a 96-well plate (Greiner, Cat. 675076), and then the reaction is started by the addition of 10 μL of 75 μmol/L PIP2, (PS Lipid Substrate Invitrogen, PV5100), and 25 μmol/L ATP mixture. After the mixture is incubated for 60 minutes at room temperature, 25 μL of transcreener Kinase Kit reagent—ADP Detection Mix—(Bellbrook Labs) is added, and the reaction is continued for an additional 1.5 hours. At the end, the plate is read in a Tecan Infinite F500 at excitation of 610 nm and emission of 670 nm.
A standard curve for ADP is obtained in a parallel way by replacing compound and PI3Kα kinase with DMSO and assay buffer, respectively. Different concentration of ADP, 0-10 μM, and ATP, 10-0 μM (ATP+ADP equal to 10 μM) are applied instead of a fixed concentration of ATP in this standard curve assay. Other conditions are the same as described above. The standard curve is plotted using Origin 8.0 software. The inhibition of test compound on ADP production is calculated based on ADP concentration from standard curve. IC50 is obtained using XLfit 2.0 software.

T2 sequence (P42336 whole entry): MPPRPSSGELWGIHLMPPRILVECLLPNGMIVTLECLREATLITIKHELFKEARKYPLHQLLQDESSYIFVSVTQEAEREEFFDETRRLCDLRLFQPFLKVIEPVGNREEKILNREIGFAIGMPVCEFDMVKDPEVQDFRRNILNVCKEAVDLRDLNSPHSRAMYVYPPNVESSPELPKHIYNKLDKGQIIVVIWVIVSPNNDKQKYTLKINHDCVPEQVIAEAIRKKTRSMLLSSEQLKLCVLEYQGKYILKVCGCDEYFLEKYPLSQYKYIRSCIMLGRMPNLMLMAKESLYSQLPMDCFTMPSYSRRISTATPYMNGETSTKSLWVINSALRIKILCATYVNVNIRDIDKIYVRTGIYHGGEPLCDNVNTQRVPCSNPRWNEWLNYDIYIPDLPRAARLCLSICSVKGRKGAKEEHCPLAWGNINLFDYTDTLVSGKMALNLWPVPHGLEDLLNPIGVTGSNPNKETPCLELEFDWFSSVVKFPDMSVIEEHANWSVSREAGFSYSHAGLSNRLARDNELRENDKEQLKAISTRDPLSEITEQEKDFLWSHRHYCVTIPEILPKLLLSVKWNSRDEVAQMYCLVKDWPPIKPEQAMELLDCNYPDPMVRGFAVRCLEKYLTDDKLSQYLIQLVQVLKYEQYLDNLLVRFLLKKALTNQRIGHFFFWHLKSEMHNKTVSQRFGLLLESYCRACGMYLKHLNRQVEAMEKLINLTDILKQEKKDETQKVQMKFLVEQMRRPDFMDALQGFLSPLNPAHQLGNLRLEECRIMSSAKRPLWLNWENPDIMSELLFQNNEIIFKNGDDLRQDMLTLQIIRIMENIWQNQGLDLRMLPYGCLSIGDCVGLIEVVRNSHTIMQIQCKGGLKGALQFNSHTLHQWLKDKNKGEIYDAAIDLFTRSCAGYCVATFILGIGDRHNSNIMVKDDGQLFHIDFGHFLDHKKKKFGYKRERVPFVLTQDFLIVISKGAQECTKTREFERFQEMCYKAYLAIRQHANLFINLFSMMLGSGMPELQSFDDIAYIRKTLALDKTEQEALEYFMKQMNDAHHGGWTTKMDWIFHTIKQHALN
T2 sequence (P27986 whole entry partner): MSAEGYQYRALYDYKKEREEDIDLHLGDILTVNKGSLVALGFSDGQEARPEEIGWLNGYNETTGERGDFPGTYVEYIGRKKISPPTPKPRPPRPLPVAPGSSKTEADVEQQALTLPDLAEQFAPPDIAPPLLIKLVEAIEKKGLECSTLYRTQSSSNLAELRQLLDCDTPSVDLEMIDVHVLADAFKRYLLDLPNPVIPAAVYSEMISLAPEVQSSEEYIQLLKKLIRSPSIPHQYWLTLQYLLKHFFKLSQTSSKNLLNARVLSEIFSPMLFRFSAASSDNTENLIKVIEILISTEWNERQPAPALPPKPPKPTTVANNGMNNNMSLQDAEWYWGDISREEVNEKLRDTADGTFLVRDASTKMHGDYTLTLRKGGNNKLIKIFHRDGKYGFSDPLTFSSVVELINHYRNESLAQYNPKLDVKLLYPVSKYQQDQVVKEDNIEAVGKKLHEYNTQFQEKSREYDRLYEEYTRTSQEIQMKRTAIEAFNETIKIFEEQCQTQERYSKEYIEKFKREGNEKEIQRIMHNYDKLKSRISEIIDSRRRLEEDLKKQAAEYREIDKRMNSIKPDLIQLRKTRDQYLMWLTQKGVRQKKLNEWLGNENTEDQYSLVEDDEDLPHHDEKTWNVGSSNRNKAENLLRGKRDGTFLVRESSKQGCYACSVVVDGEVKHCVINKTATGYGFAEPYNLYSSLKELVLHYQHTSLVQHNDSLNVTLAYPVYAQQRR

IC50, < 100 nM:
C[C@H](O)C(=O)N1CCC(n2nnc3cnc4ccc(-c5cnc(N)c(C(F)(F)F)c5)nc4c32)CC1 [Compound 1, (S)-1-(4-(8-(6-amino-5-(trifluoromethyl)pyridin-3-yl)-1H-[1,2,3]triazolo[4,5-c][1,5]naphthyridin-1-yl)piperidin-1-yl)-2-hydroxypropan-1-one]
CCC(=O)N1CCC(n2nnc3cnc4ccc(-c5cnc(N)c(C(F)(F)F)c5)nc4c32)CC1 [Compound 6]
COCC(=O)N1CCC(n2nnc3cnc4ccc(-c5cnc(N)c(C(F)(F)F)c5)nc4c32)CC1 [Compound 7]
Nc1ncc(-c2ccc3ncc4nnn(C5CCN(C(=O)C6CC6)CC5)c4c3n2)cc1C(F)(F)F [Compound 9]
Nc1ncc(-c2ccc3ncc4nnn(C5CCOCC5)c4c3n2)cc1C(F)(F)F [Compound 10]
Nc1ncc(-c2ccc3ncc4nnn(Cc5ccc(F)cc5)c4c3c2)cn1 [Compound 12]
Nc1ncc(-c2ccc3ncc4nnn(-c5ccc6[nH]ncc6c5)c4c3c2)cc1C(F)(F)F [Compound 14]
CC(C)(C#N)c1ccc(-n2nnc3cnc4ccc(-c5cnc(N)c(C(F)(F)F)c5)nc4c32)cn1 [Compound 16]
CC(C)(C#N)c1ccc(-n2nnc3cnc4ccc(-c5cnc(N)c(C(F)(F)F)c5)nc4c32)cc1 [Compound 17]
Cc1nc2cnc3ccc(-c4cnc(N)c(C(F)(F)F)c4)nc3c2n1C1CCN(CC(=O)N2CCOCC2)CC1 [Compound 124]
Cc1nc2cnc3ccc(-c4cnc(N)c(C(F)(F)F)c4)nc3c2n1C1CCN(CC(=O)N2CCCC2)CC1 [Compound 125]
Cc1nc2cnc3ccc(-c4cnc(N)c(C(F)(F)F)c4)nc3c2n1C1CCN(C(=O)[C@@H](C)O)CC1 [Compound 126]
Cc1ccc(-c2ccc3ncc4nc(C)n(C5CCN(C(=O)[C@H](C)O)CC5)c4c3n2)cn1 [Compound 127]
Cc1nc2cnc3ccc(-c4cnc(N)c(C(F)(F)F)c4)nc3c2n1C1CCN(Cc2ccccn2)CC1 [Compound 128]
COCCN1CCC(n2c(C)nc3cnc4ccc(-c5cnc(N)c(C(F)(F)F)c5)nc4c32)CC1 [Compound 130]
Cc1nc2cnc3ccc(-c4cnc(N)c(C(F)(F)F)c4)nc3c2n1C1CCN(C(=O)c2ccccn2)CC1 [Compound 132]
Cc1nc2cnc3ccc(-c4cnc(N)c(C(F)(F)F)c4)nc3c2n1C1CCOCC1 [Compound 133]
Cc1nc2cnc3ccc(-c4cnc5[nH]ncc5c4)nc3c2n1C1CCOCC1 [Compound 134]
Cc1nc2cnc3ccc(-c4cnc5[nH]ccc5c4)nc3c2n1C1CCOCC1 [Compound 135]
Cc1cc(-c2ccc3ncc4nc(C)n(C5CCC(N6CCOCC6)CC5)c4c3n2)cnc1N (stereo not drawn) [Compound 136]
Cc1nc2cnc3ccc(-c4cnc(N)c(C(F)(F)F)c4)nc3c2n1C1CCC(N2CCOCC2)CC1 (stereo not drawn) [Compound 137]
Cc1nc2cnc3ccc(-c4cnc(N)c(C(F)(F)F)c4)nc3c2n1C1CCN(S(C)(=O)=O)CC1 [Compound 138]
COc1ncc(-c2ccc3ncc4nc(C)n(C5CCN(S(C)(=O)=O)CC5)c4c3n2)cn1 [Compound 139]
C=CC(=O)N1CCC(n2c(C)nc3cnc4ccc(-c5cnc(N)c(C(F)(F)F)c5)nc4c32)CC1 [Compound 140]
Cc1nc2cnc3ccc(-c4cnc(N)c(C(F)(F)F)c4)nc3c2n1CCCN1CCOCC1 [Compound 142]
COc1ncc(-c2ccc3ncc4nc(C)n(C5CCN(C(=O)C6CC6)CC5)c4c3n2)cc1C(F)(F)F [Compound 143]
CC#CC(=O)N1CCC(n2c(C)nc3cnc4ccc(-c5cnc(N)c(C(F)(F)F)c5)nc4c32)CC1 [Compound 144]
C/C=C/C(=O)N1CCC(n2c(C)nc3cnc4ccc(-c5cnc(N)c(C(F)(F)F)c5)nc4c32)CC1 [Compound 145]
COc1ncc(-c2ccc3ncc4nnc(C)n4c3c2)cc1NS(C)(=O)=O [Compound 150]
COc1ncc(-c2ccc3ncc4nncn4c3c2)cc1NS(=O)(=O)c1ccc(F)cc1F [Compound 161]
COc1ncc(-c2ccc3ncc4nnc(C5CC5)n4c3c2)cc1NS(=O)(=O)c1ccc(F)cc1F [Compound 162]
COc1ncc(-c2ccc3ncc4n[nH]c(=O)n4c3c2)cc1NS(=O)(=O)c1ccc(F)cc1F [Compound 163]
CCS(=O)(=O)Nc1cc(-c2ccc3ncc4nnc(C)n4c3c2)cnc1OC [Compound 164]
COc1ncc(-c2ccc3ncc4nnc(C(=O)N5CCCC5)n4c3c2)cc1NS(=O)(=O)C1CC1 [Compound 167]
COc1ncc(-c2ccc3ncc4nnc(C(=O)N(C)C)n4c3c2)cc1NS(=O)(=O)C1CC1 [Compound 168]
COc1ncc(-c2ccc3ncc4nnc(C(=O)N(C)C)n4c3c2)cc1NS(=O)(=O)c1ccccc1 [Compound 169]
COCc1nnc2cnc3ccc(-c4cnc(OC)c(NS(=O)(=O)C5CC5)c4)cc3n12 [Compound 170]
COc1ncc(-c2ccc3ncc4nnc(CCN5CCOCC5)n4c3c2)cc1NS(C)(=O)=O [Compound 171]
COc1ncc(-c2ccc3ncc4nnc(CN5CCOCC5)n4c3c2)cc1NS(C)(=O)=O [Compound 172]
COc1ncc(-c2ccc3ncc4nccn4c3c2)cc1NS(=O)(=O)c1ccc(F)cc1F [Compound 173]
COc1ncc(-c2ccc3ncc4nnc(CN5CCCC5)n4c3c2)cc1NS(C)(=O)=O [Compound 174]
COc1ncc(-c2ccc3ncc4nnc(CN5CCCC5)n4c3c2)cc1NS(=O)(=O)c1ccccc1 [Compound 175]
COc1ncc(-c2ccc3ncc4nccn4c3c2)cc1NS(=O)(=O)C(F)(F)F [Compound 176]
COc1ncc(-c2ccc3ncc4ncn(CCN5CCOCC5)c4c3n2)cc1NS(C)(=O)=O [Compound 177]
COc1ncc(-c2ccc3ncc4nnc(C)n4c3c2)cc1NS(=O)(=O)c1ccc(C)cc1 [Compound 179, N-(2-methoxy-5-(1-methyl-[1,2,4]triazolo[4,3-a]quinoxalin-8-yl)pyridin-3-yl)-4-methylbenzenesulfonamide]
COc1ncc(-c2ccc3ncc4nnc(C)n4c3c2)cc1NS(=O)(=O)c1ccc(F)cc1 [Compound 182]
CC(C)(C#N)c1ccc(-n2cnc3nnc4ccc(-c5cnc(N)c(C(F)(F)F)c5)cc4c32)cc1 [Compound 183, 2-(4-(8-(6-amino-5-(trifluoromethyl)pyridin-3-yl)-1H-imidazo[4,5-c]cinnolin-1-yl)phenyl)-2-methylpropanenitrile]
Cc1nc2nnc3ccc(-c4cnc(N)c(C(F)(F)F)c4)cc3c2n1-c1ccc(C(C)(C)C#N)cc1 [Compound 184]
